The text below walks through data of patent publication US20060188576A1, “Pirenzepine ophthalmic gel” (priority 2001, published 2006).

Counter-ions that a name gives are not always drawn. Like-named read-outs stand apart in the source and are kept apart here.

The conditions of data set [1]: solution in up to 2% strength, topical ocular, adult volunteers; cited from earlier work.
In a further data set the test system is chick model of myopia. The conditions noted are these: subconjunctival injections; cited from earlier work.
Data set [2] is described as follows: Stability of pirenzepine in solution. It counts as physicochemical. The conditions noted are these: pH 5.
For data set [3], the system named is myopia. The conditions noted are these: stump-tailed monkeys; cited from earlier work.
The subject of data set [4] is myopia. The conditions noted are these: chicks; cited from earlier work.
Data set [5] concerns myopia. The conditions noted are these: cited from earlier work.
The test system of data set [6] is myopia. The conditions noted are these: tree shrews; cited from earlier work.

For `CN1CCN(CC(=O)N2c3ccccc3C(=O)Nc3cccnc32)CC1` [Pirenzepine, 5,11-dihydro-11-[(4-methyl-1-piperazinyl)acetyl]-6H pyrido [2,3-b][1,4]-benzodiazepin-6-one dihydrochloride monohydrate], the “comfort and systemic effects” value in data set [1] was “comfortable and without systemic effects”. In the data set with chick model of myopia, the axial eye growth entry is reported as “attenuated axial eye growth”. In addition, the stability in solution entry in data set [2] was “stable in solution especially at pH 5”.
With `CN1[C@@H]2CC[C@H]1C[C@@H](OC(=O)C(CO)c1ccccc1)C2` (stereo partly drawn) [atropine], the development of myopia result with myopia [3], in the data set on myopia [4], with myopia [5] (humans) and with myopia [6] was “prevents the development of myopia” each time. Further, the axial eye growth result in the data set with chick model of myopia was “attenuated axial eye growth”.
Regarding `CCN(Cc1ccncc1)C(=O)C(CO)c1ccccc1` (stereo not drawn) [tropicamide], the “effectiveness as myopia therapy” value in the data set with myopia [5] (mild cycloplegic agent, several studies) is reported as “effective in a number of studies but failed in other studies”.
